Experimental data taken from ChEMBL document CHEMBL1134252, “Reaction of Lys-Tyr-Lys triad mimics with benzylpenicillin: insight into the role of Tyr150 in class C beta-lactamase” (Bioorg Med Chem Lett, 2001).

What was measured:
[1] = pKa1 value determined; assay type: physicochemical; settings: read-out: pKa1
[2] = Time taken by compound for 10% decrease in benzyl-penicillin concentration; assay type: ADME
[3] = pKa2 value determined; assay type: physicochemical; settings: read-out: pKa2

pKa [1] | Time [2] [h] | pKa [3] | Compound
7 | 1.38 | 9.7 | Cc1cc(CN)c(O)c(CN)c1
6.3 | 3.6 | 9 | Cc1cc([C@@H](N)CO)c(O)c([C@@H](N)CO)c1
8.7 | 8.25 | – | Cc1ccc(O)c(CN)c1
8.5 | 44.9 | 10.2 | COc1c(CN)cc(C)cc1CN
6.4 | 2.45 | 9.7 | Cc1cc(CNCCO)c(O)c(CNCCO)c1
